According to PMC8201324, “Pyrazoles and Pyrazolines as Anti-Inflammatory Agents” (Molecules, 2021):
Marks after values point to notes of the source that are not given here.

Columns and labels:
[1] = ABTS+ decolorization assay for antioxidant activity; format: biochemical
Description: Pyrazolines 2d and 2e which are the most lipophilic compounds, showing antioxidant activity using the ABTS radical cation (ABTS^•+) generated through potassium persulfate by oxidation with no participation of an intermediary radical. This reduction is completed by adding electron-donating antioxidants. It seems that lipophilicity influences the activity, since both present high lipophilicity values.
(§1) A stock solution (1% DMSO in the appropriate buffer with the tested compound diluted under sonication) was prepared for the in vitro assays from which several dilutions were made with the appropriate buffer. The in vitro experiments were performed at least in triplicate, and the standard deviation of absorbance was less than 10% of the mean.
The ABTS radical cation (ABTS^+•) was generated by mixing ABTS stock solution in water (7 mM) with potassium persulfate (2.45 mM) and left in the dark at room temperature for 12–16 h before use. The results are recorded immediately after the mixing solutions at 734 nm. The results were compared to the appropriate standard inhibitor Trolox (Table 4).

[2] = Inhibition of linoleic acid lipid peroxidation (AAPH); format: biochemical
Experimental: For the lipid peroxidation study, 2,2′-azobis(2-amidinopropane) hydrochloride (AAPH) was used for the generation of peroxyl radicals. The generation of the conjugated diene hydroperoxide derived from the oxidation of sodium linoleate in an aqueous solution was recorded at 234 nm. The compounds presented high anti-lipid peroxidation activity (78–100%) (Table 4). Pyrazolines 2a and 2b present lower anti-lipid peroxidation activity (89% and 78% respectively).
as §1
AAPH was used as free radical initiator of alkylperoxyl radicals. The ability of the compounds to prevent the oxidation of linoleic acid sodium salt from alkylperoxyl radicals was recorded at 234 nm. Trolox was used as reference (93%) (Table 4).

[3] = test system: acetic acid-induced writhing; assay: Anti-nociception writhing test (acetic acid); format: in vivo, Fisher 344 rats; conditions: 0.0057 mmol/kg body weight i.p., 0.6% acetic acid after 30 min
Description: The acetic acid-induced writhing test is a quick, simple and reproducible method, despite the fact that it lacks specialization. […] The animals (Fisher 344 rats), were housed under standard conditions, and received a diet of commercial food pellets and water ad libitum during the maintenance, but were entirely fasted during the experiment period. Both sexes were used, while pregnant females were excluded. Each group was composed of 6–15 animals. Our studies were in accordance with recognized guidelines on animal experimentation (guidelines for the care and use of laboratory animals published by the Greek Government 160/1991, based on EU regulations 86/609). Rats were kept in the Centre of the School of Veterinary Medicine (EL54 BIO42), Aristotle University of Thessaloniki, which is registered by the official state veterinary authorities (presidential degree 56/2013, in harmony with the European Directive 2010/63/EEC). The experimental protocols were approved by the Animal Ethics Committee of the Prefecture of Central Macedonia. For the study of the analgesic activity of the tested compounds, pain is provoked with acetic acid. Animals were divided in three five-membered groups, according to our reported method. After treatment with the tested compounds (0.0057 mmol/kg body weight; intraperitoneally) in the first group, the second group was used as a positive control (aspirin; 0.0057 mmol/kg body weight i.p.) and the third group served as the control in which saline was administered (negative control). After 30 min, 0.6% acetic acid (1 mL/kg body weight) was injected i.p. The number of writhes was recorded for each animal every 5 min during a subsequent 30 min period (Table 6).

[4] = Reducing activity of the stable radical DPPH; format: biochemical
Experimental: The novel derivatives were studied for their interaction with the stable 2,2-diphenyl-1-picrylhydrazyl free radical (DPPH) at concentrations 50 µM, 100 µM, 200 µM and after 20 and 60 min (Table 3). This assay is based on the reduction of the DPPH by transferring an electron from the antioxidant. […] However, it seems that the interaction is dependent on the concentration and on the reaction time. From this point of view, it can be concluded that the acetyl pyrazolyl derivatives 2c and 2f seem to present the highest scavenging activities. An increase in concentration favors the activity. […] As for compounds 2a, 2b, 2c and 2f, activity seems to be time dependent at 200 µM. […] The presence of a chlorine group in 2e pyrazoline leads to an activity increase (compared to 2d) in concentration 200 µM. The acetyl derivative 2f presents better activity than 2b at 200 µM.
as §1
A stock solution (10 mM) of the novel derivatives in DMSO was prepared and an equal volume of it was added to a solution of DPPH in absolute ethanol to reach final concentrations 50, 100 µM and 200 µM. The absorbance was recorded at 517 nm, after 20 and 60 min at room temperature (Table 3).

[5] = test system: carrageenin-induced rat paw edema; assay: Inhibition of the carrageenin-induced rat paw edema; format: in vivo, Fisher 344 rats; conditions: 0.0057 mmol/Kg body weight, intraperitoneally, 3.5 h after carrageenin
Description: The carrageenin-induced rat paw edema assay was used, as a model of acute inflammation. Inflammation induced by carrageenan is acute, non-immune, well-researched, and highly reproducible, and is described as a biphasic event. Cardinal signs of inflammation—edema, hyperalgesia, and erythema, are developed immediately following subcutaneous injection, resulting from the action of pro-inflammatory agents: bradykinin, histamine, tachykinins, complement reactive oxygen and nitrogen species. It is known that NSAIDs act during the second phase of prostaglandin release, presenting weak activity in the first phase of histamine and serotonin release.
(§2) The animals (Fisher 344 rats), were housed under standard conditions, and received a diet of commercial food pellets and water ad libitum during the maintenance, but were entirely fasted during the experiment period. Both sexes were used, while pregnant females were excluded. Each group was composed of 6–15 animals. Our studies were in accordance with recognized guidelines on animal experimentation (guidelines for the care and use of laboratory animals published by the Greek Government 160/1991, based on EU regulations 86/609). Rats were kept in the Centre of the School of Veterinary Medicine (EL54 BIO42), Aristotle University of Thessaloniki, which is registered by the official state veterinary authorities (presidential degree 56/2013, in harmony with the European Directive 2010/63/EEC). The experimental protocols were approved by the Animal Ethics Committee of the Prefecture of Central Macedonia.
Carrageenin in water as an intradermal injection of 0.1 mL 2% was used for the induction of the edema in the right hind paw of the rats, according to the previously reported method. Animals were divided in five-membered groups and the tested compounds were suspended in water (0.0057 mmol/kg body weight), with a few drops of Tween 80, ground in a mortar before administered intraperitoneally simultaneously. The rats were euthanized 3.5 h after carrageenin injection. Comparison of the change in paw weight with that in control animals (treated with water) was expressed as a percent inhibition of the oedema CPE% values using indomethacin (IMA) as a reference compound. Values CPE% are the mean from two different experiments with a standard error of the mean less than 10% (Table 5). Student’s T test was applied.

[6] = test system: adjuvant-induced disease (AID); assay: Adjuvant-induced disease (AID); format: in vivo, Fisher 344 rats; conditions: AID rats
Experimental: Adjuvant-induced disease (AID) is a good experimental model for rheumatoid arthritis, and is often used in testing agents for anti-inflammatory activity. The compound was administered intraperitoneally on the 1st day, i.e., the day of the administration of Freund’s adjuvant (FA), and once every other day for the following 24 days. Adjuvant arthritis was developed about 14 days post-FA administration. […] The effect of the tested compound on inflammation is shown in Table 7 and the time course of adjuvant arthritis development expressed as arthritic score is shown in Figure 2. In the same experimental model, Indomethacin (IMA) was used as a reference compound.
as §2
Rats were divided into four groups (five-membered groups of animals were used): groups one, two and three were injected intradermally with 0.1 mL Freund’s adjuvant (FA) into the base of the tails of the animals; group three was the FA control rats; group four was injected with saline, used as an absolute control. Compound 2d (group 1) and indomethacin (group 2) were injected i.p. once every other day for the following 24 days in a dose of 0.00057 mmol/mL/kg body weight (Table 7). Adjuvant arthritis was developed circa 14 days post-FA administration. Arthritic score was measured every 2 days from the commencement (14th day) day. Arthritic score was assessed on the 24th day. For quantification of arthritis (arthritic score); a single point was assigned for each wrist or ankle area and an additional point was given for each involved phalangeal joint, up to a maximum of five points per extremity.
On the 24th day and at least 12 h after the last injection, animals were administered zoxazolamine i.p. […], as an aqueous suspension with a few drops of Tween 80, and the duration of the paralysis were assessed (Table 7) (Figure 2). The experiment was conducted in duplicate.

[7] = 0.00057 mmol/mL/kg i.p. every other day for 24 days

## Cc1c(C)c2c(c(C)c1O)CCC(C)(C(=O)O)O2 (stereo not drawn) [Trolox, 6-Hydroxy-2,5,7,8-tetramethyl-chroman-2-carboxylic acid, reference compound]
[1]
  ABTS^+ % 100 µM (decolorization activity): 91%
[2]
  AAPH% 100 µM (anti-lipid peroxidation): 93%

## CC(=O)Oc1ccccc1C(=O)O [Aspirin, acetylsalicylic acid, reference compound]
[3]
  Writhing Inhibition (%): 77 ** %

## CC(Cc1ccc(O)c(O)c1)C(C)Cc1ccc(O)c(O)c1 (stereo not drawn) [NDGA, Nordihydroguaretic acid, reference compound]
[4]; 50 µM, 20 min
  RA% 50 µM 20 min: 81%
[4]; 50 µM, 60 min
  RA% 50 µM 60 min: 83%
[4]; 100 µM, 20 min
  RA% 100 µM 20 min: 87%
[4]; 200 µM, 20 min
  RA% 200 µM 20 min: 94%
[4]; 200 µM, 60 min
  RA% 200 µM 60 min: 96%

## COc1ccc2c(c1)c(CC(=O)O)c(C)n2C(=O)c1ccc(Cl)cc1 [Indomethacin, reference compound]
[5]
  CPE % (reduction in the rat paw edema induced by carrageenin): 47 ** %
[6]; [7]
  Percent change in body weight (g ± SD): 8.3 ± 0.2 g
  Percent change in liver weight (g ± SD): 6.3 ± 0.4 g
[6]; 24th day, zoxazolamine i.p.
  Zoxazolamine paralysis (minutes ± SD): 217 ± 17 min
